Measured values: article PMC8808171, “Nonselective TRPC channel inhibition and suppression of aminoglycoside-induced premature termination codon readthrough by the small molecule AC1903” (The Journal of Biological Chemistry, 2022)
Entries after “also recorded” stand apart in the source; their conditions may differ.

Legend:
hPiezo1 = target: T1, hPiezo1 (Homo sapiens, UniProt Q92508); experiment: [Ca2+]i recordings (Fura-2), Piezo1 in HEK T-REx cells; type: cell-based
T1 construct: expressed in transfected cells; host or cells: HEK T-REx (tetracycline-induced)
T1 sequence (Q92508 whole entry): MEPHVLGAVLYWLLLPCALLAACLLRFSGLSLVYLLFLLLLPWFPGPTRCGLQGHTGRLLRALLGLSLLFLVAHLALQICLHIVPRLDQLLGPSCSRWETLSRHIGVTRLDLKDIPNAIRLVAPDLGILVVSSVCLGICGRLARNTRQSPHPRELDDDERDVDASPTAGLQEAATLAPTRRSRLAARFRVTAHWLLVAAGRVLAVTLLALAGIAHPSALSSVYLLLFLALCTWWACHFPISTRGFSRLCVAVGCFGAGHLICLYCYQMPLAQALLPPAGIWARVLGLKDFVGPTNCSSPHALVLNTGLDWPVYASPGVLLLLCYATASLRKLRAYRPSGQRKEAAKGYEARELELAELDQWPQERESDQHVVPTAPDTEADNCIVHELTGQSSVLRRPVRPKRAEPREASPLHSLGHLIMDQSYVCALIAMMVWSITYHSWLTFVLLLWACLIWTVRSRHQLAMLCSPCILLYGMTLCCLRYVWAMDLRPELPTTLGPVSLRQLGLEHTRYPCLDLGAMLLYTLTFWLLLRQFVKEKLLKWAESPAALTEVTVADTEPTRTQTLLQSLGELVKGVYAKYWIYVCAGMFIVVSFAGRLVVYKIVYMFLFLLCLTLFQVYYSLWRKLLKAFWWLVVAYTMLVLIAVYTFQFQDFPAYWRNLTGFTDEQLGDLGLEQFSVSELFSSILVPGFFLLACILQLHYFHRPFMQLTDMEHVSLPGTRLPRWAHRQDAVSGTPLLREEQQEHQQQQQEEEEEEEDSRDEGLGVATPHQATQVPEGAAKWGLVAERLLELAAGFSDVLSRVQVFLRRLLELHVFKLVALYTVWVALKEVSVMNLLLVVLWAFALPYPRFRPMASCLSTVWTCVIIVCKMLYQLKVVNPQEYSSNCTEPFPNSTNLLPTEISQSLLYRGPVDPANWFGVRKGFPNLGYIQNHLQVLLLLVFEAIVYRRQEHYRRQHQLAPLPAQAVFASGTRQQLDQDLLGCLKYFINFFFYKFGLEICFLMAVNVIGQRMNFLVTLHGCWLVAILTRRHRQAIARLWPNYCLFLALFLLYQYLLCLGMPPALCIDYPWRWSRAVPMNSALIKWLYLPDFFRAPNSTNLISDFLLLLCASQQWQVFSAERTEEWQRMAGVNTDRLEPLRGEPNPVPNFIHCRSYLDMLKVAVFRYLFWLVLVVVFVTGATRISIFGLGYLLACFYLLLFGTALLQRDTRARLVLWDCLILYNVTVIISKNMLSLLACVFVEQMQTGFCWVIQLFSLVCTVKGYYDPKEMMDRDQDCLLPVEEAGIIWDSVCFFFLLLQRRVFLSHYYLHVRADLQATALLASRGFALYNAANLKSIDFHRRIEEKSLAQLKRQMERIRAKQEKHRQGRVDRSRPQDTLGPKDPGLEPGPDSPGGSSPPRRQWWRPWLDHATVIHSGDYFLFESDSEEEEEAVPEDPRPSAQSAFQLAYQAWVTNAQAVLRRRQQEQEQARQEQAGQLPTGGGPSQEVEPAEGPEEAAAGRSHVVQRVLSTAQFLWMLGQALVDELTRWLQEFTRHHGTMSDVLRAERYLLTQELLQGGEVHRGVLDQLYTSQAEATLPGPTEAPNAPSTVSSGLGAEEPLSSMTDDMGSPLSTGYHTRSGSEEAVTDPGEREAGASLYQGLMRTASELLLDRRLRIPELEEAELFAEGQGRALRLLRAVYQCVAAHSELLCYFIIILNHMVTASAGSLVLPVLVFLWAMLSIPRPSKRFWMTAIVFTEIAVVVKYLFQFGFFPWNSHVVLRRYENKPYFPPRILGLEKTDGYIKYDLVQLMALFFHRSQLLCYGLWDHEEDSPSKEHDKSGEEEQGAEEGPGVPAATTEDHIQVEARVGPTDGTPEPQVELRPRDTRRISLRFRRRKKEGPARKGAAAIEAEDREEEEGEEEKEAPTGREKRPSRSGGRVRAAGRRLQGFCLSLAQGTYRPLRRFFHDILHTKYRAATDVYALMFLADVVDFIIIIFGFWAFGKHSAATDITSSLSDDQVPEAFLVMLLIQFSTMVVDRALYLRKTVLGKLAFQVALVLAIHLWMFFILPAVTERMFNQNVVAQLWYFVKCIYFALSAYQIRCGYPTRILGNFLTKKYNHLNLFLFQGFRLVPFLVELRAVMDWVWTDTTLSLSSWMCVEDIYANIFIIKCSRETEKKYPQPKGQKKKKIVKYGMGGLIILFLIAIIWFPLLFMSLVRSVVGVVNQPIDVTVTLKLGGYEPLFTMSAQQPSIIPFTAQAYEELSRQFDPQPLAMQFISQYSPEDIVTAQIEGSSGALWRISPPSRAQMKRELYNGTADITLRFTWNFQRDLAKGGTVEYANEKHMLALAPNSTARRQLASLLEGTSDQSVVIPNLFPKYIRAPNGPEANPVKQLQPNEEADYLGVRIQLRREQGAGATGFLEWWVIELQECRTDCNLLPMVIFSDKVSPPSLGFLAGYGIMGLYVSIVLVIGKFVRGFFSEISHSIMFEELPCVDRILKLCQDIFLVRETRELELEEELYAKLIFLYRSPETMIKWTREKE
Description: Based on the findings described above, we wondered whether AC1903—which is typically used as a TRPC5 inhibitor at concentrations of 30–100 μM in cellular assays ([29], [56])—might have limited selectivity for TRPC5 channels and whether its effect on intracellular G418 levels and PTC readthrough might be the consequence of inhibition of other or multiple targets. All well-characterized TRPC channel inhibitors reported to date modulate multiple TRP(C) channels ([34], [35], [36]). […] Because limited data for the selectivity of AC1903 are available in the public domain, we decided to profile AC1903 against a selection of calcium-permeable cation channels by intracellular calcium ([Ca^2+]i) recordings using well-characterized cell lines and TRP channel activators ([46], [57], [58]), and the Ca^2+ indicator Fura-2. In these assays, cells (HEK 293, HEK T-REx, or CHO) overexpressing the relevant ion channel protein and loaded with Fura-2 AM (a cell-permeable precursor of Fura-2) were preincubated with various concentrations of AC1903 or vehicle (DMSO) for 30 min. Then, changes in ratiometric fluorescence (from background) were recorded upon addition of the respective ion channel activator.
HEK T-REx cells expressing tetracycline-inducible TRPC4, TRPC5, TRPC5–C1,TRPC4–C1, and hPiezo1 have been described previously ([46], [57], [59], [78]). […]

TRPC1:C4 (A498) = target: T2, TRPC1:C4 (A498) (Homo sapiens, UniProt P48995+Q9UBN4); experiment: [Ca2+]i recordings (Fura-2), endogenous TRPC1:C4 channels in A498 cells; type: cell-based; conditions: activator EA (100 nM)
T2 construct: endogenous in cells; host or cells: A498
T2 sequence (Q9UBN4 whole entry): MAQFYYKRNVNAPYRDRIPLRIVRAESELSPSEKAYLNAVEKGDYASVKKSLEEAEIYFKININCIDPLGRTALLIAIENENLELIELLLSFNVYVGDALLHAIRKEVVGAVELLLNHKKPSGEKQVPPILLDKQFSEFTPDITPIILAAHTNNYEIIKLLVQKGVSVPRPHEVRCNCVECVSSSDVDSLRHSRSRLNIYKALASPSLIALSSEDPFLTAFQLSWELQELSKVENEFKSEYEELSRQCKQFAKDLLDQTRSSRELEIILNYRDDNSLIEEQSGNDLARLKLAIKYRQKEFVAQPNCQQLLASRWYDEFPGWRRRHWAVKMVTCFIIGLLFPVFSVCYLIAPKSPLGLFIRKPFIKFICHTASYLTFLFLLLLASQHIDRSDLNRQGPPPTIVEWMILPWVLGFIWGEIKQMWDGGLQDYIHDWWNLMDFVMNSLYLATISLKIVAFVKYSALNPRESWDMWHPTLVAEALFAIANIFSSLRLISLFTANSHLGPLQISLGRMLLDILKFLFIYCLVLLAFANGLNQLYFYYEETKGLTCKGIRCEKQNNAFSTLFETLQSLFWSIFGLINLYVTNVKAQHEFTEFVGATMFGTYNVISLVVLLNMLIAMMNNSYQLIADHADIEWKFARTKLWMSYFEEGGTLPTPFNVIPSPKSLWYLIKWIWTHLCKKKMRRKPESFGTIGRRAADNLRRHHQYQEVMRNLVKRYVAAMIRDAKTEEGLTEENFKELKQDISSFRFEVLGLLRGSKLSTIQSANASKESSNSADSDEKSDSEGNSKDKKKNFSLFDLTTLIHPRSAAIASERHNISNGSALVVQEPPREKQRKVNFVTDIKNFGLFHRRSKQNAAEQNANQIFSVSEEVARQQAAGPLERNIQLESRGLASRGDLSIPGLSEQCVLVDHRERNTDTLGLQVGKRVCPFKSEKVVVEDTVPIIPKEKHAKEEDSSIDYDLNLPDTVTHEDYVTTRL
T2 sequence (P48995 whole entry): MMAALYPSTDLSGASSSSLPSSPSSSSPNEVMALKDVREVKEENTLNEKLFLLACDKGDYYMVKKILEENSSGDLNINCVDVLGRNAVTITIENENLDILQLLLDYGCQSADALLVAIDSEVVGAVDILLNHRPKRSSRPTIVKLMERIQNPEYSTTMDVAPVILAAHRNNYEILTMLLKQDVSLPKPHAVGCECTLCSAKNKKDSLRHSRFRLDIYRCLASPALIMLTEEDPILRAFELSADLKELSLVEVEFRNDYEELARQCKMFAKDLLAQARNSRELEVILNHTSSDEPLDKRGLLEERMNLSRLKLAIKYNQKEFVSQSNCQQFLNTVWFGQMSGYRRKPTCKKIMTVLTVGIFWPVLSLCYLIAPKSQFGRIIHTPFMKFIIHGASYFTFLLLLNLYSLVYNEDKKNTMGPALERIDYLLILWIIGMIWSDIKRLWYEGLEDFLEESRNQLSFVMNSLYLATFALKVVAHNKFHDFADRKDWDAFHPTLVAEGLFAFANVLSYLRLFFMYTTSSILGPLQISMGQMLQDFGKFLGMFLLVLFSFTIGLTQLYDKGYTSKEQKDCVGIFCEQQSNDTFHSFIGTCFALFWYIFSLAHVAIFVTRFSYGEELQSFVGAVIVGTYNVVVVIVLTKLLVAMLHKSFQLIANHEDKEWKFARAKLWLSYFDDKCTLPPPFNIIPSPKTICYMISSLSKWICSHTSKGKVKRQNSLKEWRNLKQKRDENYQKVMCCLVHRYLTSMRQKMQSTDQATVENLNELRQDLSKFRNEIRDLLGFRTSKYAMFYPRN
Description: HEK T-REx cells expressing tetracycline-inducible TRPC4, TRPC5, TRPC5–C1,TRPC4–C1, and hPiezo1 have been described previously ([46], [57], [59], [78]). Cloning of TRPC3 has been described previously ([79]). To create cells stably expressing tetracycline-inducible TRPC3, HEK T-REx cells were transfected with pcDNA4/TO/hTRPC3 using jetPRIME transfection reagent (VWR) according to manufacturer’s instructions. After 48 h cells were put under antibiotic selection using 400 μg/ml zeocin and 10 μg/ml Blasticidin S (Invivogen)). Medium changes were carried out every 2 to 3 days to remove dead cells. Inducible HEK T-REx cells were cultured in Dulbecco’s modified Eagle medium GlutaMAX (Thermo Fisher Scientific) containing 10% fetal bovine serum (FBS; Merck), penicillin-streptomycin (100 units ml^−1/100 μg ml^−1), with the addition of blasticidin (10 μg ml^1; Invivogen) and zeocin (Invivogen) at either 400 μg ml^−1 (TRPC cell lines) or 200 μg ml^−1 (hPiezo1) to maintain the stable incorporation of the tetracycline repressor and the channel of interest, respectively. Expression of tetracycline-inducible proteins was induced by the addition of tetracycline (TRPC cell lines: 1 μg ml^−1, hPiezo1: 100 ng ml^−1; 24 h) to cell culture medium. […]
For Ca^2+ recording, electrophysiology, and cell viability experiments, data were analyzed using GraphPad Prism 9.0. […]

- IC50 (hPiezo1; HEK T-REx, activator Yoda1 (3 μM)): > 100 µM
- Hill slope (TRPC1:C4 (A498); A498): -1.2
- IC50 (TRPC1:C4 (A498); A498 cells): 3.4 µM
SMILES: c1ccc(Cn2c(NCc3ccco3)nc3ccccc32)cc1 [AC1903]
- inhibition of Yoda1-activated Piezo1 channels (hPiezo1; AC1903 up to 30 μM): does not affect; also recorded: did not inhibit
